These results are taken from patent US11066414B2, “Cot modulators and methods of use thereof” (Gilead Sciences, Inc., priority 2015, dated 2021).

Read-outs that look alike come from different tables or passages of the source.

In one assay the test system is TNFα. Briefly: Cot Monocyte TNFα Cell Based Assay.
The next assay addresses Human Cot (Homo sapiens (Human), UniProt P41279). Briefly: High Throughput Cot Biochemical Assay.
Where [1] appears, read: Homo sapiens, Monocyte, read-out: EC50 TNF, LPS-stimulated human monocytes, TNFα.
[2] abbreviates: IC50 HTRF, Cot HTRF (TR-FRET) biochemical assay.
Where [3] appears, read: IC50 HTRF, Cot HTRF (TR-FRET KinEASE) biochemical assay, 400 μM ATP.

Sequence of Human Cot (P41279 30-397): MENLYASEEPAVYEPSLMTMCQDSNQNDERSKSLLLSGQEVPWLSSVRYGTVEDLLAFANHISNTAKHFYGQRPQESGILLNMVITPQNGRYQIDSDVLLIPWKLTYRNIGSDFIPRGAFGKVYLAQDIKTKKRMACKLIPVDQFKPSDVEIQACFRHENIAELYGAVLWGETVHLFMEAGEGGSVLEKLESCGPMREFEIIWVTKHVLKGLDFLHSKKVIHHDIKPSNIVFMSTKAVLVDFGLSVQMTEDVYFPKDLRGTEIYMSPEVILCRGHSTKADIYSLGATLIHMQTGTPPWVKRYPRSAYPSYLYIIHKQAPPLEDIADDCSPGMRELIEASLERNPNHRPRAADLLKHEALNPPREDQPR

In general, EC50 refers to the concentration giving half of the maximal effect. One may read the IC50 as the concentration that gives 50% inhibition. In the case of “6-(((S)-(1-((1R,2R)-2- (difluoromethyl)cyclopropyl)- 1H-1,2,3-triazol-4-yl)(6-fluoro- 2-methylpyridin- 3-yl)methyl)amino)-4- [Example 834]”, in the assay on TNFα (read-out: EC50 TNF, LPS-stimulated human monocytes, TNFα TR-FRET), the EC50 was determined as 68 nM. Further, at Human Cot (read-out: IC50 HTRF, Cot HTRF (TR-FRET KinEASE) biochemical assay, 400 μM ATP), the IC50 was found to be 5 nM. For `CC(C)n1cc([C@@H](Nc2cc(Cl)c3ncc(C#N)c(Nc4ccc(F)c(Cl)c4)c3c2)c2ccc3c(c2)CNCC3)nn1` [Example 50, (S)-8-chloro-4-((3-chloro-4-fluorophenyl)amino)-6-(((1-isopropyl-1H-1,2,3-triazol-4-yl)(1,2,3,4-tetrahydroisoquinolin-7-yl)methyl)amino)quinoline-3-carbonitrile], the EC50 in the assay with TNFα (setting [1]) was found to be 3530 nM. This compound displayed an IC50 against Human Cot (setting [2]) of 70 nM.

Consider `CC(C)(C)N1CCC(n2cc([C@@H](Nc3cc(Cl)c4ncc(C#N)c(Nc5ccc(F)c(Cl)c5)c4c3)c3ccc4c(c3)NCC4)nn2)CC1` [Example 51, (S)-6-(((1-(1-(tert-butyl)piperidin-4-yl)-1H-1,2,3-triazol-4-yl)(indolin-6-yl)methyl)amino)-8-chloro-4-((3-chloro-4-fluorophenyl)amino)quinoline-3-carbonitrile], for which the EC50 with TNFα (setting [1]) is 1560 nM. At Human Cot (setting [2]), this compound showed an IC50 of 55 nM. Turning to `CCN1Cc2ccc([C@H](Nc3cc(Cl)c4ncc(C#N)c(Nc5ccc(F)c(Cl)c5)c4c3)c3c[nH]nn3)cc2C1` [Example 53, (S)-8-chloro-4-((3-chloro-4-fluorophenyl)amino)-6-(((2-ethylisoindolin-5-yl)(1H-1,2,3-triazol-4-yl)methyl)-amino)quinoline-3-carbonitrile], the EC50 in the assay with TNFα (setting [1]) was found to be 4020 nM. Also, the IC50 on Human Cot (setting [2]) is 81 nM. Consider `CCN1Cc2cccc([C@H](Nc3cc(Cl)c4ncc(C#N)c(Nc5ccc(F)c(Cl)c5)c4c3)c3c[nH]nn3)c2C1` [Example 54, (S)-8-chloro-4-((3-chloro-4-fluorophenyl)amino)-6-(((2-ethylisoindolin-4-yl)(1H-1,2,3-triazol-4-yl)methyl)amino)quinoline-3-carbonitrile], for which the EC50 with TNFα (setting [1]) was found to be 652 nM. The IC50 at Human Cot (setting [2]) was found to be 11 nM. The like results for `N#Cc1cnc2c(Cl)cc(N[C@@H](c3ccc4c(c3)CNC4)c3c[nH]nn3)cc2c1Nc1ccc(F)c(Cl)c1` [Example 55, (S)-8-chloro-4-((3-chloro-4-fluorophenyl)amino)-6-((isoindolin-5-yl(1H-1,2,3-triazol-4-yl)methyl)amino)quinoline-3-carbonitrile] were, in that order, 10800 nM and 58 nM. For `N#Cc1cnc2c(Cl)cc(N[C@H](c3c[nH]nn3)c3cccc4c3CNC4)cc2c1Nc1ccc(F)c(Cl)c1` [Example 56, (S)-8-chloro-4-((3-chloro-4-fluorophenyl)amino)-6-((isoindolin-4-yl(1H-1,2,3-triazol-4-yl)methyl)amino)quinoline-3-carbonitrile], in the assay on TNFα (setting [1]), the EC50 turned out to be 2520 nM. The compound further had an IC50 against Human Cot (setting [2]) of 6 nM. The like results for `CC(C)(C)N1CCC(n2cc([C@@H](Nc3cc(Cl)c4ncc(C#N)c(Nc5ccc(F)c(Cl)c5)c4c3)c3ccc4c(c3)CNC4)nn2)CC1` [Example 57, (S)-6-(((1-(1-(tert-butyl)piperidin-4-yl)-1H-1,2,3-triazol-4-yl)(isoindolin-5-yl)methyl)amino)-8-chloro-4-((3-chloro-4-fluorophenyl)amino)quinoline-3-carbonitrile] were, in that order, 5990 nM and 60 nM. Take `CCN1Cc2ccc([C@H](Nc3cc(Cl)c4ncc(C#N)c(Nc5ccc(F)c(Cl)c5)c4c3)c3cn(C4CCN(C(C)(C)C)CC4)nn3)cc2C1` [Example 58, (S)-6-(((1-(1-(tert-butyl)piperidin-4-yl)-1H-1,2,3-triazol-4-yl)(2-ethylisoindolin-5-yl)methyl)amino)-8-chloro-4-((3-chloro-4-fluorophenyl)amino)quinoline-3-carbonitrile]: the EC50 in the assay with TNFα (setting [1]) was determined as 2980 nM. Also, it took 72 nM to reach half-maximal inhibition against Human Cot (setting [2]) (IC50). The like results for `CC(C)(C)N1CCC(n2cc([C@@H](Nc3cc(Cl)c4ncc(C#N)c(Nc5ccc(F)c(Cl)c5)c4c3)c3cccc4c3CNC4)nn2)CC1` [Example 59, (S)-6-(((1-(1-(tert-butyl)piperidin-4-yl)-1H-1,2,3-triazol-4-yl)(isoindolin-4-yl)methyl)amino)-8-chloro-4-((3-chloro-4-fluorophenyl)amino)quinoline-3-carbonitrile] were, in that order, 892 nM and 2 nM.

For the compound `CC(C)n1cc([C@@H](Nc2cc(Cl)c3ncc(C#N)c(Nc4ccc(F)c(Cl)c4)c3c2)c2ccc3ncsc3c2)nn1` [Example 61, (S)-6-((benzo[d]thiazol-6-yl(1-isopropyl-1H-1,2,3-triazol-4-yl)nielhyl)amino)-8-chloro-4-((3-chloro-4-fluorophenyl)amino)quinoline-3-carbonitrile], the EC50 with TNFα (read-out: EC50 TNF, LPS-stimulated human monocytes, TNFα) turned out to be 238 nM. In addition, the IC50 at Human Cot (read-out: IC50 HTRF, Cot HTRF (TR-FRET) biochemical assay) was found to be 11 nM.

On to `CC(C)(C)N1CCC(n2cc([C@@H](Nc3cc(Cl)c4ncc(C#N)c(Nc5ccc(F)c(Cl)c5)c4c3)c3ccc4scnc4c3)nn2)CC1` [Example 62, (S)-6-((benzo[d]thiazol-5-yl(1-(1-(tert-butyl)piperidin-4-yl)-1H-1,2,3-triazol-4-yl)methyl)amino)-8-chloro-4-((3-chloro-4-fluorophenyl)amino)quinoline-3-carbonitrile], for which the EC50 with TNFα (setting [1]) was found to be 216 nM. Besides, the IC50 against Human Cot (setting [2]) is 10 nM.

As for `CC(C)(C)N1CCC(n2cc([C@@H](Nc3cc(Cl)c4ncc(C#N)c(Nc5ccc(F)c(Cl)c5)c4c3)c3ccc4sccc4c3)nn2)CC1` [Example 64, (S)-6-((benzo[b]thiophen-5-yl(1-(1-(tert-butyl)piperidin-4-yl)-1H-1,2,3-triazol-4-yl)methyl)amino)-8-chloro-4-((3-chloro-4-fluorophenyl)amino)quinoline-3-carbonitrile], the EC50 with TNFα (setting [1]) is 2650 nM. The IC50 against Human Cot (setting [2]) was 42 nM. For the compound `CC(C)(C)CNc1c(C#N)cnc2c(C#N)cc(N[C@H](c3cn(C4(C#N)CC4)nn3)c3cccc4ncsc34)cc12` [Example 67, (S)-6-((benzo[d]thiazol-7-yl(1-(1-cyanocyclopropyl)-1H-1,2,3-triazol-4-yl)methyl)amino)-4-(neopentylamino)quinoline-3,8-dicarbonitrile], the EC50 in the assay with TNFα (setting [1]) is 32 nM. For the same compound, the midpoint of inhibition at Human Cot (setting [2]), the IC50, lay at 1 nM.

As to `N#CCC[C@@H](Nc1c(C#N)cnc2c(Cl)cc(N[C@H](c3cn(C4CC4)nn3)c3cccc4c3CNC4)cc12)c1ccccc1` [Example 68, 8-chloro-4-(((R)-3-cyano-1-phenyl-propyl)amino)-6-(((S)-(1-cyclopropyl-1H-1,2,3-triazol-4-yl)(isoindolin-4-yl)methyl)amino)quinoline-3-carbonitrile], in the assay with TNFα (setting [1]), the EC50 came to 51 nM. For the same compound, half-maximal inhibition on Human Cot (setting [2]) (IC50) was put at 1 nM.

Turning to `N#CCC[C@@H](Nc1c(C#N)cnc2c(Cl)cc(N[C@H](c3cn(C4CC4)nn3)c3cccc4ncsc34)cc12)c1ccccc1` [Example 69, 6-(((S)-benzo[d]thiazol-7-yl(1-cyclopropyl-1H-1,2,3-triazol-4-yl)methyl)amino)-8-chloro-4-(((R)-3-cyano-1-phenylpropyl)amino)quinoline-3-carbonitrile], in the assay with TNFα (setting [1]), the EC50 amounted to 33 nM. The same compound had an IC50 against Human Cot (setting [2]) of 2 nM. On to `CC(C)(C)CNc1c(C#N)cnc2c(Br)cc(N[C@H](c3cn(C4CC4)nn3)c3cccc4nc(N)sc34)cc12` [Example 70, (S)-6-(((2-aminobenzo[d]thiazol-7-yl)(1-cyclopropyl-1H-1,2,3-triazol-4-yl)methyl)amino)-8-bromo-4-(neopentylamino)quinoline-3-carbonitrile], for which the EC50 in the assay on TNFα (setting [1]) turned out to be 804 nM. On Human Cot (setting [2]), this compound registered an IC50 of 19 nM. As to `Cn1ccc2c([C@H](Nc3cc(C#N)c4ncc(C#N)c(NCC(C)(C)C)c4c3)c3cn(C4(C(F)F)CC4)nn3)ccnc21` [Example 873, (S)-6-(((1-(1-(difluoromethyl)cyclopropyl)-1H-1,2,3-triazol-4-yl)(1-methyl-1H-pyrrolo[2,3-b]pyridin-4-yl)methyl)amino)-4-(neopentylamino)quinoline-3,8-dicarbonitrile], on Human Cot (setting [3]), the IC50 was found to be 5 nM. On the same count and under the same terms, the value for `Cc1nc(F)ccc1[C@H](Nc1cc(C#N)c2ncc(C#N)c(NCC(C)(C)C)c2c1)c1nnn(C)c1F` [Example 906, (S)-6-(((5-fluoro-1-methyl-1H-1,2,3-triazol-4-yl)(6-fluoro-2-methylpyridin-3-yl)methyl)amino)-4-(neopentylamino)quinoline-3,8-dicarbonitrile] was 4 nM. On the same count and under the same terms, next, `Cc1nc(F)ccc1[C@H](Nc1cc(Cl)c2ncc(C#N)c(NCC(C)(C)C)c2c1)c1nnn(C2(C)CC2)c1F` [Example 947, (S)-8-chloro-6-(((5-fluoro-1-(1-methylcyclopropyl)-1H-1,2,3-triazol-4-yl)(6-fluoro-2-methyl-pyridin-3-yl)methyl)amino)-4-(neopentylamino)quinoline-3-carbonitrile]: 3 nM. Compound `Cc1nc(F)ccc1[C@H](Nc1cc(Cl)c2ncc(C#N)c(NCC(C)(C)C)c2c1)c1nnn(C23CC(C2)C3)c1F` [Example 951, (S)-6-(((1-(bicyclo[1.1.1]pentan-1-yl)-5-fluoro-1H-1,2,3-triazol-4-yl)(6-fluoro-2-methylpyridin-3-yl)methyl)amino)-8-chloro-4-(neopentylamino)quinoline-3-carbonitrile] registered an IC50 at Human Cot (setting [3]) of 9 nM. The same measure, in the same setting: the value for `Cc1nc(F)ccc1[C@H](Nc1cc(Cl)c2ncc(C#N)c(NCC(C)(C)C(F)(F)F)c2c1)c1nnn(C2CC2)c1F` [Example 958, (S)-8-chloro-6-(((1-cyclopropyl-5-fluoro-1H-1,2,3-triazol-4-yl)(6-fluoro-2-methylpyridin-3-yl)methyl)amino)-4-((3,3,3-trifluoro-2,2-dimethylpropyl)amino)quinoline-3-carbonitrile] was 2 nM.
